Measurements from the supplement of paper PMC6045584.
± gives the standard deviation of the averaged measurements.

Each test system was assayed with CN(C)CC[C@H](CSc1ccccc1)Nc1ccc(S(=O)(=O)NC(=O)c2ccc(N3CCN(Cc4ccccc4-c4ccc(Cl)cc4)CC3)cc2)cc1[N+](=O)[O-] [ABT-737] (assay: surviving fraction relative to DMSO-only wells; higher = less growth inhibition). Conditions: 50 nM; exposure time: 5 days.
In short: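 Luminescence normalised to the median of DMSO-only wells defines surviving fraction, with viability read by CellTiter-Glo. Signal was recorded after 10 minutes at room temperature, once log-phase tumour cell lines seeded at 250–500 cells per well in 384-well plates had spent 24 hours settling and then five days under continuous exposure to inhibitors at 0.5, 1, 5, 10, 50, 100, 500 and 1000 nM.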
In the case of SCC36 HEADNECK, the surviving fraction is reported as 1.14 ± 0.14.
With OS25HAL BONE the surviving fraction was 1.06 ± 0.082.
HCC1806 BREAST gave a surviving fraction of 1.17 ± 0.11.
HU09 BONE showed a surviving fraction of 0.988 ± 0.063.
Test System SG43 HEADNECK has a surviving fraction of 0.769 ± 0.14.
Test System U2OS BONE has a surviving fraction of 1.08 ± 0.035.
With HOSMNG BONE the surviving fraction was 0.928 ± 0.072.
CASKI CERVIX was tested, and the surviving fraction was 1.08 ± 0.015.
For SUM44 BREAST, the surviving fraction was 1.28 ± 0.48.
MDAMB231 BREAST showed a surviving fraction of 1.02 ± 0.041.
Test System CAL51 BREAST has a surviving fraction of 1.04 ± 0.021.
MDAMB436 BREAST was tested, and the surviving fraction was 0.998 ± 0.1.
In the case of HSSYII SYNOVIAL, the surviving fraction is reported as 1.12 ± 0.054.
For RDES SOFT TISSUE, the surviving fraction was 0.765 ± 0.083.
With MDAMB157 BREAST the surviving fraction was 1.01 ± 0.032.
CHLA90 AUTONOMIC GANGLIA gave a surviving fraction of 1.02 ± 0.064.
Test System CADOES1 SOFT TISSUE has a surviving fraction of 0.748 ± 0.081.
For SG31 HEADNECK, the surviving fraction was 1.03 ± 0.18.
With SCC47 HEADNECK the surviving fraction was 1.24 ± 0.087.
S68 BREAST showed a surviving fraction of 1.26 ± 0.41.
With SNU475 LIVER the surviving fraction was 1.02 ± 0.039.
22RV1 PROSTATE showed a surviving fraction of 1.07 ± 0.086.
SG32 HEADNECK was tested, and the surviving fraction was 0.963 ± 0.025.
For SCC003 HEADNECK, the surviving fraction was 1.15 ± 0.096.
“JURKAT HAEMATOPOIETIC AND LYMPHOID TISSUE” showed a surviving fraction of 0.949 ± 0.025.
In the case of HT1080 SOFT TISSUE, the surviving fraction is reported as 1 ± 0.028.
For CAL120 BREAST, the surviving fraction was 0.997 ± 0.018.
MCF7 BREAST showed a surviving fraction of 1.02 ± 0.052.
With MFM223 BREAST the surviving fraction was 1.08 ± 0.091.
LNCAP PROSTATE was tested, and the surviving fraction was 0.973 ± 0.035.
PCI30 HEADNECK gave a surviving fraction of 1.08 ± 0.023.
OSHN BONE gave a surviving fraction of 1.11 ± 0.028.
SG28 HEADNECK was tested, and the surviving fraction was 1.036 ± 0.0064.
Test System HOS BONE has a surviving fraction of 1.06 ± 0.016.
Work on HUO3N1 BONE yielded a surviving fraction of 1.09 ± 0.074.
In the case of BT20 BREAST, the surviving fraction is reported as 1.14 ± 0.14.
Test System SJSA1 BONE has a surviving fraction of 1.66 ± 0.078.
With JIMT1 BREAST the surviving fraction was 1.04 ± 0.037.
For HCC78 LUNG, the surviving fraction was 1.04 ± 0.062.
Work on NY BONE yielded a surviving fraction of 1.07 ± 0.012.
NOS1 BONE showed a surviving fraction of 1.19 ± 0.092.

Same assay, conditions: 100 nM; exposure time: 5 days
With SCC36 HEADNECK the surviving fraction was 1.12 ± 0.061.
OS25HAL BONE gave a surviving fraction of 1.12 ± 0.042.
HCC1806 BREAST gave a surviving fraction of 1.16 ± 0.067.
Work on HU09 BONE yielded a surviving fraction of 0.912 ± 0.08.
SG43 HEADNECK was tested, and the surviving fraction was 0.801 ± 0.069.
Work on U2OS BONE yielded a surviving fraction of 1.11 ± 0.024.
In the case of HOSMNG BONE, the surviving fraction is reported as 1 ± 0.075.
Test System CASKI CERVIX has a surviving fraction of 1.06 ± 0.094.
SUM44 BREAST gave a surviving fraction of 1.25 ± 0.48.
MDAMB231 BREAST showed a surviving fraction of 1.01 ± 0.03.
CAL51 BREAST was tested, and the surviving fraction was 1.08 ± 0.086.
In the case of MDAMB436 BREAST, the surviving fraction is reported as 1.14 ± 0.31.
With HSSYII SYNOVIAL the surviving fraction was 0.859 ± 0.041.
RDES SOFT TISSUE gave a surviving fraction of 0.576 ± 0.034.
Test System MDAMB157 BREAST has a surviving fraction of 1.01 ± 0.057.
CHLA90 AUTONOMIC GANGLIA gave a surviving fraction of 1.01 ± 0.12.
CADOES1 SOFT TISSUE gave a surviving fraction of 0.679 ± 0.068.
SG31 HEADNECK showed a surviving fraction of 1.2 ± 0.27.
SCC47 HEADNECK showed a surviving fraction of 1.2 ± 0.055.
With S68 BREAST the surviving fraction was 1.14 ± 0.27.
For SNU475 LIVER, the surviving fraction was 1 ± 0.12.
22RV1 PROSTATE was tested, and the surviving fraction was 1.03 ± 0.13.
For SG32 HEADNECK, the surviving fraction was 1.23 ± 0.51.
For SCC003 HEADNECK, the surviving fraction was 1.16 ± 0.1.
“JURKAT HAEMATOPOIETIC AND LYMPHOID TISSUE” was tested, and the surviving fraction was 0.932 ± 0.035.
In the case of HT1080 SOFT TISSUE, the surviving fraction is reported as 1.05 ± 0.029.
In the case of CAL120 BREAST, the surviving fraction is reported as 0.998 ± 0.038.
In the case of MCF7 BREAST, the surviving fraction is reported as 1.02 ± 0.044.
MFM223 BREAST showed a surviving fraction of 1.05 ± 0.14.
LNCAP PROSTATE was tested, and the surviving fraction was 0.932 ± 0.04.
PCI30 HEADNECK was tested, and the surviving fraction was 1.13 ± 0.11.
Work on OSHN BONE yielded a surviving fraction of 1.11 ± 0.022.
For SG28 HEADNECK, the surviving fraction was 1.09 ± 0.021.
With HOS BONE the surviving fraction was 1.084 ± 0.0046.
HUO3N1 BONE was tested, and the surviving fraction was 1.05 ± 0.039.
In the case of BT20 BREAST, the surviving fraction is reported as 1.18 ± 0.13.
SJSA1 BONE gave a surviving fraction of 1.81 ± 0.12.
JIMT1 BREAST was tested, and the surviving fraction was 1.07 ± 0.06.
HCC78 LUNG was tested, and the surviving fraction was 0.92 ± 0.2.
Work on NY BONE yielded a surviving fraction of 1.071 ± 0.0072.
NOS1 BONE was tested, and the surviving fraction was 1.14 ± 0.048.

Same assay, conditions: 500 nM; exposure time: 5 days
SCC36 HEADNECK showed a surviving fraction of 0.897 ± 0.035.
OS25HAL BONE was tested, and the surviving fraction was 0.983 ± 0.045.
HCC1806 BREAST showed a surviving fraction of 1.05 ± 0.074.
For HU09 BONE, the surviving fraction was 0.697 ± 0.031.
SG43 HEADNECK gave a surviving fraction of 0.656 ± 0.24.
In the case of U2OS BONE, the surviving fraction is reported as 1.06 ± 0.029.
HOSMNG BONE gave a surviving fraction of 0.921 ± 0.12.
Work on CASKI CERVIX yielded a surviving fraction of 0.931 ± 0.092.
In the case of SUM44 BREAST, the surviving fraction is reported as 1.2 ± 0.42.
With MDAMB231 BREAST the surviving fraction was 1 ± 0.018.
CAL51 BREAST showed a surviving fraction of 1.09 ± 0.017.
With MDAMB436 BREAST the surviving fraction was 0.961 ± 0.17.
Work on HSSYII SYNOVIAL yielded a surviving fraction of 0.637 ± 0.017.
In the case of RDES SOFT TISSUE, the surviving fraction is reported as 0.405 ± 0.037.
For MDAMB157 BREAST, the surviving fraction was 0.938 ± 0.028.
Test System CHLA90 AUTONOMIC GANGLIA has a surviving fraction of 0.979 ± 0.093.
In the case of CADOES1 SOFT TISSUE, the surviving fraction is reported as 0.679 ± 0.015.
Work on SG31 HEADNECK yielded a surviving fraction of 1.27 ± 0.25.
Test System SCC47 HEADNECK has a surviving fraction of 1.1 ± 0.053.
In the case of S68 BREAST, the surviving fraction is reported as 0.848 ± 0.25.
Work on SNU475 LIVER yielded a surviving fraction of 1.01 ± 0.061.
With 22RV1 PROSTATE the surviving fraction was 1.1 ± 0.042.
SG32 HEADNECK gave a surviving fraction of 1.07 ± 0.0099.
Work on SCC003 HEADNECK yielded a surviving fraction of 1.19 ± 0.049.
“JURKAT HAEMATOPOIETIC AND LYMPHOID TISSUE” was tested, and the surviving fraction was 0.752 ± 0.041.
Work on HT1080 SOFT TISSUE yielded a surviving fraction of 1.01 ± 0.032.
CAL120 BREAST showed a surviving fraction of 0.992 ± 0.012.
With MCF7 BREAST the surviving fraction was 0.985 ± 0.02.
MFM223 BREAST showed a surviving fraction of 1.05 ± 0.082.
For LNCAP PROSTATE, the surviving fraction was 0.914 ± 0.05.
Test System PCI30 HEADNECK has a surviving fraction of 0.919 ± 0.091.
With OSHN BONE the surviving fraction was 1.02 ± 0.049.
SG28 HEADNECK was tested, and the surviving fraction was 1.13 ± 0.14.
Work on HOS BONE yielded a surviving fraction of 1.08 ± 0.046.
In the case of HUO3N1 BONE, the surviving fraction is reported as 0.994 ± 0.064.
Work on BT20 BREAST yielded a surviving fraction of 1.14 ± 0.043.
SJSA1 BONE showed a surviving fraction of 1.74 ± 0.045.
Test System JIMT1 BREAST has a surviving fraction of 1.06 ± 0.054.
For HCC78 LUNG, the surviving fraction was 0.967 ± 0.19.
Work on NY BONE yielded a surviving fraction of 0.99 ± 0.017.
NOS1 BONE showed a surviving fraction of 1.09 ± 0.081.

Same assay, conditions: 1000 nM; exposure time: 5 days
With SCC36 HEADNECK the surviving fraction was 0.924 ± 0.11.
Test System OS25HAL BONE has a surviving fraction of 0.882 ± 0.076.
Test System HCC1806 BREAST has a surviving fraction of 1.13 ± 0.04.
HU09 BONE showed a surviving fraction of 0.617 ± 0.027.
Test System SG43 HEADNECK has a surviving fraction of 0.752 ± 0.34.
Test System U2OS BONE has a surviving fraction of 1.02 ± 0.038.
HOSMNG BONE was tested, and the surviving fraction was 0.944 ± 0.11.
CASKI CERVIX gave a surviving fraction of 0.715 ± 0.026.
SUM44 BREAST gave a surviving fraction of 1.1 ± 0.34.
Work on MDAMB231 BREAST yielded a surviving fraction of 0.941 ± 0.02.
Test System CAL51 BREAST has a surviving fraction of 0.959 ± 0.048.
Test System MDAMB436 BREAST has a surviving fraction of 0.962 ± 0.083.
HSSYII SYNOVIAL showed a surviving fraction of 0.54 ± 0.079.
Work on RDES SOFT TISSUE yielded a surviving fraction of 0.385 ± 0.058.
Work on MDAMB157 BREAST yielded a surviving fraction of 0.893 ± 0.059.
Work on CHLA90 AUTONOMIC GANGLIA yielded a surviving fraction of 0.997 ± 0.13.
In the case of CADOES1 SOFT TISSUE, the surviving fraction is reported as 0.689 ± 0.049.
With SG31 HEADNECK the surviving fraction was 1.12 ± 0.11.
Work on SCC47 HEADNECK yielded a surviving fraction of 1.14 ± 0.12.
Test System S68 BREAST has a surviving fraction of 0.822 ± 0.14.
With SNU475 LIVER the surviving fraction was 0.972 ± 0.047.
Test System 22RV1 PROSTATE has a surviving fraction of 0.96 ± 0.097.
For SG32 HEADNECK, the surviving fraction was 0.954 ± 0.045.
Work on SCC003 HEADNECK yielded a surviving fraction of 1.09 ± 0.069.
With “JURKAT HAEMATOPOIETIC AND LYMPHOID TISSUE” the surviving fraction was 0.549 ± 0.0064.
HT1080 SOFT TISSUE was tested, and the surviving fraction was 1.02 ± 0.028.
In the case of CAL120 BREAST, the surviving fraction is reported as 0.773 ± 0.11.
For MCF7 BREAST, the surviving fraction was 1 ± 0.022.
Test System MFM223 BREAST has a surviving fraction of 1.2 ± 0.054.
LNCAP PROSTATE showed a surviving fraction of 0.856 ± 0.1.
PCI30 HEADNECK was tested, and the surviving fraction was 0.909 ± 0.022.
OSHN BONE showed a surviving fraction of 0.998 ± 0.035.
SG28 HEADNECK was tested, and the surviving fraction was 1.04 ± 0.016.
Work on HOS BONE yielded a surviving fraction of 1.03 ± 0.021.
HUO3N1 BONE gave a surviving fraction of 0.943 ± 0.02.
For BT20 BREAST, the surviving fraction was 1.07 ± 0.064.
SJSA1 BONE gave a surviving fraction of 1.81 ± 0.14.
With JIMT1 BREAST the surviving fraction was 1.08 ± 0.032.
For HCC78 LUNG, the surviving fraction was 0.939 ± 0.2.
Work on NY BONE yielded a surviving fraction of 0.957 ± 0.035.
NOS1 BONE showed a surviving fraction of 1.11 ± 0.17.
